The test system of assay [1] is MUTU-I Burkitt’s lymphoma cell line. The assay is described as follows: alamarBlue cell viability assay. Conditions: MUTU-I, 24 h; for viability at 1 µM: read-out: % Viable Cells Remaining MUTU-1, 1 µM, 24 h; for viability at 10 µM: read-out: % Viable Cells Remaining MUTU-1, 10 µM, 24 h. A general note: Alamar Blue is a resazurin reagent that responds to reducing activity.

For assay [2], the system named is DG-75 Burkitt’s lymphoma cell line. In words: alamarBlue cell viability assay. To be noted: Homo sapiens, DG-75, 48 h; for viability at 1 µM: read-out: % Viable Cells Remaining DG-75, 1 µM, 48 h; for viability at 10 µM: read-out: % Viable Cells Remaining DG-75, 10 µM, 48 h.

Regarding `O=[N+]([O-])/C=C/c1c2ccccc2c(-c2ccccc2)c2ccccc12` [Compound 19j, (E)-9-(2-Nitrovinyl)-10-Phenylanthracene], in assay [1], the viability at 1 µM was found to be 68.5% and the viability at 10 µM came to 1.29%. In assay [2], the viability at 1 µM came to 83.5% and the viability at 10 µM worked out at 1.5%.

`O=[N+]([O-])/C=C/c1c2cccc(Cl)c2cc2c(Cl)cccc12` [Compound 19k, (E)-1,8-Dichloro-10-(2-Nitrovinyl)Anthracene]: in assay [1], the viability at 1 µM came to 71% and the viability at 10 µM was -0.18%. Also, in assay [2], the viability at 1 µM is 88.7% and the viability at 10 µM worked out at 0.15%.

With `N#C/C=C/c1c2ccccc2cc2ccccc12` [Compound 23c], the viability at 1 µM was found to be 88.1% in assay [1] and 84.2% in assay [2]. Also, the viability at 10 µM in assay [1] came out at 86.9%; in assay [2] it was 82%.

In the case of `OCc1c2ccccc2cc2ccccc12` [Compound 26, anthracen-9-ylmethanol], the figures for the viability at 1 µM in assay [1] and in assay [2] were 106% and 102%, respectively. For the same compound, the viability at 10 µM was determined as 94.9% in assay [1] and 93% in assay [2].

In the case of `N#CCc1c2ccccc2cc2ccccc12` [Compound 28, 2-(anthracen-9-yl)acetonitrile], in assay [1], the viability at 1 µM came out at 95.2% and the viability at 10 µM is 88.8%. Besides, in assay [2], the viability at 1 µM was 93.8% and the viability at 10 µM is 85.2%.

`c1ccc2c(CN3CCCCCC3)c3ccccc3cc2c1` [Compound 29a]: the viability at 1 µM in assay [1] is 103%; in assay [2] it was 83.6%. In addition, the figures for the viability at 10 µM in assay [1] and in assay [2] were 99% and 89.3%, respectively.

Take `c1ccc2c(CN3CCCC3)c3ccccc3cc2c1` [Compound 29b]: in assay [1], the viability at 1 µM is 108% and the viability at 10 µM was 106%. In addition, in assay [2], the viability at 1 µM worked out at 93.2% and the viability at 10 µM is 97.2%.

As to `N/N=C/c1c2ccccc2cc2ccccc12` [Compound 32a], the viability at 1 µM in assay [1] turned out to be 97.5%; in assay [2], 104%. The results for the viability at 10 µM in assay [1] and in assay [2] were 95.5% and 102%, respectively.

For `N/N=C/c1c2ccccc2c(Cl)c2ccccc12` [Compound 32b], in assay [1], the viability at 1 µM stood at 105% and the viability at 10 µM worked out at 82.5%. In addition, in assay [2], the viability at 1 µM was 94.8% and the viability at 10 µM was 100%.

As for `O/N=C/c1c2ccccc2cc2ccccc12` [Compound 32c], the results for the viability at 1 µM in assay [1] and in assay [2] were 99.2% and 92.5%, respectively. Besides, the viability at 10 µM was 92.7% in assay [1] and 101% in assay [2].

As for `O/N=C/Cc1c2ccccc2cc2ccccc12` [Compound 32e], in assay [1], the viability at 1 µM is 103% and the viability at 10 µM amounted to 94.9%. For the same compound, in assay [2], the viability at 1 µM is 102% and the viability at 10 µM was found to be 93%.

Take `CCN(CC)C(=O)c1c2ccccc2cc2ccccc12` [Compound 33a]: in assay [1], the viability at 1 µM was determined as 105% and the viability at 10 µM is 103%. Further, in assay [2], the viability at 1 µM was found to be 90.1% and the viability at 10 µM is 90.5%.

As for `O=C(c1c2ccccc2cc2ccccc12)N1CCOCC1` [Compound 33e], in assay [1], the viability at 1 µM came out at 86.9% and the viability at 10 µM came to 85.2%. In assay [2], the viability at 1 µM is 86.1% and the viability at 10 µM came to 80.2%.

As to `CNCCCC12CCC(c3ccccc31)c1ccccc12` [Maprotiline, maprotiline, reference compound], in assay [1], the viability at 1 µM is 93.1% and the viability at 10 µM was determined as 72%. Also, in assay [2], the viability at 1 µM stood at 102% and the viability at 10 µM is 65%.

Source of the values: publication PMC10746112, “Synthesis and Pro-Apoptotic Effects of Nitrovinylanthracenes and Related Compounds in Chronic Lymphocytic Leukaemia (CLL) and Burkitt’s Lymphoma (BL)” (Molecules, 2023).
